Experimental data taken from patent publication US10428083B2, “Heterocyclylmethyl-thienouracile as antagonists of the adenosine-A2B-receptor” (BAYER PHARMA AKTIENGESELLSCHAFT, priority 2015, dated 2019).

Biological target: human adenosine A2b receptor (Homo sapiens (Human), UniProt P29275)
Assay: Cellular in vitro reporter gene test for A2b receptor activity (CHO-K1, CRE-luciferase, NECA stimulation)
Type: cell-based
Conditions: recombinant CHO-K1 cell line, CRE-luciferase reporter, antagonism of EC50 concentration of NECA; in some cases means of several determinations, rounded to two significant figures; read-out: A2b receptor IC50
Outline: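 CHO-K1 cells with CRE-driven luciferase; antagonists co-incubated with NECA at its EC50, determined in a pre-experiment on each test day. Luciferase read by luminescence 3 h after NECA addition.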

Chain of human adenosine A2b receptor (P29275 whole entry): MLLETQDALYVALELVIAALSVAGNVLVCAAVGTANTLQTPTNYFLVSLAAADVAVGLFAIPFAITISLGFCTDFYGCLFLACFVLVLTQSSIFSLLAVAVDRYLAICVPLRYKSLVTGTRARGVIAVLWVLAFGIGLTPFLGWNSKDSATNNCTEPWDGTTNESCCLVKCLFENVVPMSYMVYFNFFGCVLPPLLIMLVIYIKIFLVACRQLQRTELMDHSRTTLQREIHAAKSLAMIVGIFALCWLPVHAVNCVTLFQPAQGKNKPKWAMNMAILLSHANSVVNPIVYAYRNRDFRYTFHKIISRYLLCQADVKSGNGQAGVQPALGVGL

Row | Structure (SMILES) | IC50 [nM]
1 | COCCn1c(=O)c2c(C)c(CN3CCNC3=NC(=O)OC)sc2n(CC2CCCO2)c1=O (single isomer, unassigned) [Example 391, Methyl [1-f{[3-(2-methoxyethyl)-5-methyl-2,4-dioxo-1-(tetrahydrofuran-2-ylmethyl)-1,2,3,4-tetrahydrothieno[2,3-d]pyrimidin-6-yl]methyl}imidazolidin-2-ylidene]carbamate] | 34
2 | COCCn1c(=O)c2c(C)c(CN3CCNC3=NC(=O)OC)sc2n(CC2CCCO2)c1=O (single isomer, unassigned) [Example 392, Methyl [1-f{[3-(2-methoxyethyl)-5-methyl-2,4-dioxo-1-(tetrahydrofuran-2-ylmethyl)-1,2,3,4-tetrahydrothieno[2,3-d]pyrimidin-6-yl]methyl}imidazolidin-2-ylidene]carbamate] | 56
3 | COC(C)Cn1c(=O)c2c(C)c(CN3CCNC3=O)sc2n(CCC(F)(F)F)c1=O (single isomer, unassigned) [Example 413, 3-(2-Methoxypropyl)-5-methyl-6-[(2-oxoimidazolidin-1-yl)methyl]-1-(3,3,3-trifluoropropyl)thieno[2,3-d]pyrimidine-2,4(1H,3H)-dione] | 4.6
4 | COC(C)Cn1c(=O)c2c(C)c(CN3CCNC3=O)sc2n(CCC(F)(F)F)c1=O (single isomer, unassigned) [Example 414, 3-(2-Methoxypropyl)-5-methyl-6-[(2-oxoimidazolidin-1-yl)methyl]-1-(3,3,3-trifluoropropyl)thieno[2,3-d]pyrimidine-2,4(1H,3H)-dione] | 11
5 | CCn1c(=O)c2c(C)c(Cn3nc[nH]c3=O)sc2n(CC2CCCO2)c1=O (single isomer, unassigned) [Example 420, 3-Ethyl-5-methyl-6-[(5-oxo-4,5-dihydro-1H-1,2,4-triazol-1-yl)methyl]-1-(tetrahydrofuran-2-ylmethyl)thieno[2,3-d]pyrimidine-2,4(1H,3H)-dione] | 50
6 | CCn1c(=O)c2c(C)c(Cn3nc[nH]c3=O)sc2n(CC2CCCO2)c1=O (single isomer, unassigned) [Example 421, 3-Ethyl-5-methyl-6-[(5-oxo-4,5-dihydro-1H-1,2,4-triazol-1-yl)methyl]-1-(tetrahydrofuran-2-ylmethyl)thieno[2,3-d]pyrimidine-2,4(1H,3H)-dione] | 71
7 | Cc1c(Cn2nc[nH]c2=O)sc2c1c(=O)n(CC(C)(C)C)c(=O)n2CC1CCCO1 (single isomer, unassigned) [Example 430, 3-(2,2-Dimethylpropyl)-5-methyl-6-[(5-oxo-4,5-dihydro-1H-1,2,4-triazol-1-yl)methyl]-1-(tetrahydrofuran-2-ylmethyl)thieno[2,3-d]pyrimidine-2,4(1H,3H)-dione] | 280
8 | Cc1c(Cn2nc[nH]c2=O)sc2c1c(=O)n(CC(C)(C)C)c(=O)n2CC1CCCO1 (single isomer, unassigned) [Example 431, 3-(2,2-Dimethylpropyl)-5-methyl-6-[(5-oxo-4,5-dihydro-1H-1,2,4-triazol-1-yl)methyl]-1-(tetrahydrofuran-2-ylmethyl)thieno[2,3-d]pyrimidine-2,4(1H,3H)-dione] | 740
9 | Cc1c(Cn2nc[nH]c2=O)sc2c1c(=O)n(CC(F)(F)F)c(=O)n2CC1CCCO1 (single isomer, unassigned) [Example 435, 5-Methyl-6-[(5-oxo-4,5-dihydro-1H-1,2,4-triazol-1-yl)methyl]-1-(tetrahydrofuran-2-ylmethyl)-3-(2,2,2-trifluoroethyl)thieno[2,3-d]pyrimidine-2,4(1H,3H)-dione] | 43
10 | Cc1c(Cn2nc[nH]c2=O)sc2c1c(=O)n(CC(F)(F)F)c(=O)n2CC1CCCO1 (single isomer, unassigned) [Example 436, 5-Methyl-6-[(5-oxo-4,5-dihydro-1H-1,2,4-triazol-1-yl)methyl]-1-(tetrahydrofuran-2-ylmethyl)-3-(2,2,2-trifluoroethyl)thieno[2,3-d]pyrimidine-2,4(1H,3H)-dione] | 65
11 | COC(C)Cn1c(=O)c2c(C)c(Cn3nc[nH]c3=O)sc2n(CCC(F)(F)F)c1=O (single isomer, unassigned) [Example 441, 3-(2-Methoxypropyl)-5-methyl-6-[(5-oxo-4,5-dihydro-1H-1,2,4-triazol-1-yl)methyl]-1-(3,3,3-trifluoropropyl)thieno[2,3-d]pyrimidine-2,4(1H,3H)-dione] | 8.6
12 | COC(C)Cn1c(=O)c2c(C)c(Cn3nc[nH]c3=O)sc2n(CCC(F)(F)F)c1=O (single isomer, unassigned) [Example 442, 3-(2-Methoxypropyl)-5-methyl-6-[(5-oxo-4,5-dihydro-1H-1,2,4-triazol-1-yl)methyl]-1-(3,3,3-trifluoropropyl)thieno[2,3-d]pyrimidine-2,4(1H,3H)-dione] | 60
13 | Cc1c(CN2CCNC2=NC#N)sc2c1c(=O)n(CC(C)(C)C)c(=O)n2CC1CCCO1 (single isomer, unassigned) [Example 447, [1-{[3-(2,2-Dimethylpropyl)-5-methyl-2,4-dioxo-1-(tetrahydrofuran-2-ylmethyl)-1,2,3,4-tetrahydrothieno[2,3-d]pyrimidin-6-yl]methyl}imidazolidin-2-ylidene]cyanamide] | 9.7
14 | Cc1c(CN2CCNC2=NC#N)sc2c1c(=O)n(CC(C)(C)C)c(=O)n2CC1CCCO1 (single isomer, unassigned) [Example 448, [1-{[3-(2,2-Dimethylpropyl)-5-methyl-2,4-dioxo-1-(tetrahydrofuran-2-ylmethyl)-1,2,3,4-tetrahydrothieno[2,3-d]pyrimidin-6-yl]methyl}imidazolidin-2-ylidene]cyanamide] | 17
15 | Cc1c(CN2CCNC2=NC#N)sc2c1c(=O)n(CC(F)(F)F)c(=O)n2CC1CCO1 (single isomer, unassigned) [Example 449, [1-{[5-Methyl-1-(oxetan-2-ylmethyl)-2,4-dioxo-3-(2,2,2-trifluoroethyl)-1,2,3,4-tetrahydrothieno[2,3-d]pyrimidin-6-yl]methyl}imidazolidin-2-ylidene]cyanamide] | 54

More lines, now with the values ahead:

Row | IC50 [nM] | Structure (SMILES)
16 | 87 | COCCn1c(=O)c2c(C)c(CN3CCNC3=NC(=O)OC)sc2n(CC2CCO2)c1=O (single isomer, unassigned) [Example 389, Methyl [1-{[3-(2-methoxyethyl)-5-methyl-1-(oxetan-2-ylmethyl)-2,4-dioxo-1,2,3,4-tetrahydrothieno[2,3-d]pyrimidin-6-yl]methyl}imidazolidin-2-ylidene]carbamate]
17 | 240 | Cc1c(CN2CCNC(=O)C2=O)sc2c1c(=O)n(C(C)C)c(=O)n2CC1CCO1 (single isomer, unassigned) [Example 398, 6-[(2,3-Dioxopiperazin-1-yl)methyl]-3-isopropyl-5-methyl-1-(oxetan-2-ylmethyl)thieno[2,3-d]pyrimidine-2,4(1H,3H)-dione]
18 | 26 | Cc1c(CN2CCNC(=O)C2=O)sc2c1c(=O)n(C(C)C)c(=O)n2CC1CCO1 (single isomer, unassigned) [Example 399, 6-[(2,3-Dioxopiperazin-1-yl)methyl]-3-isopropyl-5-methyl-1-(oxetan-2-ylmethyl)thieno[2,3-d]pyrimidine-2,4(1H,3H)-dione]
19 | 660 | COCCn1c(=O)c2c(C)c(CN3CCNC(=O)C3=O)sc2n(CC2CCO2)c1=O (single isomer, unassigned) [Example 401, 6-[(2,3-Dioxopiperazin-1-yl)methyl]-3-(2-methoxyethyl)-5-methyl-1-(oxetan-2-ylmethyl)thieno[2,3-d]pyrimidine-2,4(1H,3H)-dione]
20 | 100 | COCCn1c(=O)c2c(C)c(CN3CCNC(=O)C3=O)sc2n(CC2CCO2)c1=O (single isomer, unassigned) [Example 402, 6-[(2,3-Dioxopiperazin-1-yl)methyl]-3-(2-methoxyethyl)-5-methyl-1-(oxetan-2-ylmethyl)thieno[2,3-d]pyrimidine-2,4(1H,3H)-dione]
21 | 32 | Cc1c(CN2CCNC2=O)sc2c1c(=O)n(CC(C)(C)C)c(=O)n2CC1CCCO1 (single isomer, unassigned) [Example 407, 3-(2,2-Dimethylpropyl)-5-methyl-6-[(2-oxoimidazolidin-1-yl)methyl]-1-(tetrahydrofuran-2-ylmethyl)thieno[2,3-d]pyrimidine-2,4(1H,3H)-dione]
22 | 12 | Cc1c(CN2CCNC2=O)sc2c1c(=O)n(CC(C)(C)C)c(=O)n2CC1CCCO1 (single isomer, unassigned) [Example 408, 3-(2,2-Dimethylpropyl)-5-methyl-6-[(2-oxoimidazolidin-1-yl)methyl]-1-(tetrahydrofuran-2-ylmethyl)thieno[2,3-d]pyrimidine-2,4(1H,3H)-dione]
23 | 42 | Cc1c(Cn2nc[nH]c2=O)sc2c1c(=O)n(C(C)C)c(=O)n2CC1CCCO1 (single isomer, unassigned) [Example 425, 3-Isopropyl-5-methyl-6-[(5-oxo-4,5-dihydro-1H-1,2,4-triazol-1-yl)methyl]-1-(tetrahydrofuran-2-ylmethyl)thieno[2,3-d]pyrimidine-2,4(1H,3H)-dione]
24 | 270 | Cc1c(Cn2nc[nH]c2=O)sc2c1c(=O)n(C(C)C)c(=O)n2CC1CCCO1 (single isomer, unassigned) [Example 426, 3-Isopropyl-5-methyl-6-[(5-oxo-4,5-dihydro-1H-1,2,4-triazol-1-yl)methyl]-1-(tetrahydrofuran-2-ylmethyl)thieno[2,3-d]pyrimidine-2,4(1H,3H)-dione]
25 | 14 | Cc1c(CN2CCNC2=NC#N)sc2c1c(=O)n(CC(F)(F)F)c(=O)n2CC1CCO1 (single isomer, unassigned) [Example 450, [1-{[5-Methyl-1-(oxetan-2-ylmethyl)-2,4-dioxo-3-(2,2,2-trifluoroethyl)-1,2,3,4-tetrahydrothieno[2,3-d]pyrimidin-6-yl]methyl}imidazolidin-2-ylidene]cyanamide]
